# Measurements: ChEMBL document CHEMBL4382199, “Application of Virtual Screening to the Identification of New LpxC Inhibitor Chemotypes, Oxazolidinone and Isoxazoline” (J Med Chem, 2018)
# Activity calls are given as the source filed them. The rule behind the calls is not given here.
# Columns and labels:
# [1] = test system: Pseudomonas aeruginosa; experiment: Antimicrobial activity against Pseudomonas aeruginosa ATCC 27853 after 20 hrs by CLSI protocol-based microdilution assay; format: functional; conditions: ATCC 27853, 20 h
# [2] = test system: Escherichia coli; experiment: Antimicrobial activity against Escherichia coli ATCC 25922 after 20 hrs by CLSI protocol-based microdilution assay; format: functional; conditions: ATCC 25922, 20 h
# [3] = target: T1, UDP-3-O-acyl-N-acetylglucosamine deacetylase (Pseudomonas aeruginosa (strain ATCC 15692 / PAO1 / 1C / PRS 101 / LMG12228), UniProt P47205); experiment: Binding affinity to Pseudomonas aeruginosa PAO1 NB52019 LpxC after 60 to 420 secs by SPR method
# T1 sequence (P47205 whole entry): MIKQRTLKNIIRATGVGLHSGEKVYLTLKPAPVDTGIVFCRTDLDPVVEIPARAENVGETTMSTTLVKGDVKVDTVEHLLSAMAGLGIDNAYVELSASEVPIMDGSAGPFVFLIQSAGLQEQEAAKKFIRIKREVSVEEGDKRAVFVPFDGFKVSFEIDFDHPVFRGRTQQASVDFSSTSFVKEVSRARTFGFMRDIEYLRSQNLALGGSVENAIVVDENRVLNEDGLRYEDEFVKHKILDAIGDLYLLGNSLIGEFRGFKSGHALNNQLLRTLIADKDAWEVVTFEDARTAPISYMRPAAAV
# [4] = test system: Klebsiella pneumoniae; experiment: Inhibition of LpxC in Klebsiella pneumoniae ATCC 43816 assessed as antibacterial activity after 20 hrs in presence of vancomycin by CLSI protocol-based microdilution assay
# [5] = test system: Klebsiella pneumoniae; experiment: Inhibition of LpxC in Klebsiella pneumoniae ATCC 43816 assessed as potentiation factor by measuring ratio of MIC of compound alone to MIC of compound in presence of vancomycin after 20 hrs by CLSI protocol-based microdilution assay
# [6] = test system: Klebsiella pneumoniae; experiment: Inhibition of LpxC in Klebsiella pneumoniae ATCC 43816 assessed as antibacterial activity after 20 hrs in presence of rifampicin by CLSI protocol-based microdilution assay
# [7] = test system: Klebsiella pneumoniae; experiment: Antimicrobial activity against Klebsiella pneumoniae ATCC 43816 after 20 hrs by CLSI protocol-based microdilution assay; format: functional; conditions: ATCC 43816, 20 h
# [8] = Lipophilicity, log D of the compound at pH 7.4; format: physicochemical; conditions: buffer
# [9] = test system: Klebsiella pneumoniae; experiment: Inhibition of LpxC in Klebsiella pneumoniae ATCC 43816 assessed as potentiation factor by measuring ratio of MIC of compound alone to MIC of compound in presence of rifampicin after 20 hrs by CLSI protocol-based microdilution assay
# [10] = test system: Klebsiella pneumoniae; experiment: Antibacterial activity against Klebsiella pneumoniae infected in lung infection mouse model assessed as log reduction in bacterial load in lungs at 200 mg/kg, sc dosed every 6 hrs measured after 48 hrs post first treatment; format: functional, organism-based
# [11] = test system: Klebsiella pneumoniae; experiment: Antibacterial activity against Klebsiella pneumoniae infected in mouse model of lung infection assessed as reduction in bacterial load in lung at 200 mg/kg, sc dosed every 6 hrs and measured after 48 hrs post first treatment; format: functional, organism-based
# [12] = Volume of distribution at steady state in mouse at 60 mg/kg, iv; format: ADME, organism-based; conditions: in vivo, read-out: Vdss
# [13] = Clearance in mouse at 60 mg/kg, iv; format: ADME, organism-based; conditions: in vivo
# [14] = Clearance in dog at 10 mg/kg, iv; format: ADME, organism-based, Canis lupus familiaris; conditions: in vivo
# [15] = Volume of distribution at steady state in rat at 5 mg/kg, iv; format: ADME, organism-based; conditions: in vivo, read-out: Vdss
# [16] = Half life in dog at 10 mg/kg, iv; format: ADME, organism-based, Canis lupus familiaris; conditions: in vivo
# [17] = Protein binding in rat plasma; format: ADME, cell-free; conditions: read-out: PPB (converted)
# [18] = Half life in mouse at 60 mg/kg, iv; format: ADME, organism-based; conditions: in vivo
# [19] = test system: Pseudomonas aeruginosa; experiment: Antimicrobial activity against Pseudomonas aeruginosa infected in mouse model of neutropenic thigh infection assessed reduction in bacterial levels in thigh at 105 mg/kg/day, sc administered 2 hrs post infection every 6 hrs for 24 hrs; format: functional, organism-based
# [20] = Protein binding in mouse plasma; format: ADME, cell-free; conditions: read-out: PPB (converted)
# [21] = Protein binding in human plasma; format: ADME, cell-free; conditions: read-out: PPB (converted)
# [22] = Protein binding in dog plasma; format: ADME, cell-free, Canis lupus familiaris; conditions: read-out: PPB (converted)
# [23] = Solubility of the compound at pH 7.4; format: physicochemical; conditions: buffer
# [24] = Volume of distribution at steady state in dog at 10 mg/kg, iv; format: ADME, organism-based, Canis lupus familiaris; conditions: in vivo, read-out: Vdss
# [25] = Solubility of the compound at pH 9; format: physicochemical; conditions: buffer
# [26] = test system: Klebsiella pneumoniae; experiment: Antibacterial activity against Klebsiella pneumoniae infected in mouse model of lung infection assessed as reduction in bacterial load in lung at 20 mg/kg, sc dosed every 6 hrs and measured after 48 hrs post first treatment; format: functional
# [27] = Clearance in rat at 5 mg/kg, iv; format: ADME, organism-based; conditions: in vivo
# [28] = test system: Klebsiella pneumoniae; experiment: Antibacterial activity against Klebsiella pneumoniae infected in mouse model of lung infection assessed as reduction in bacterial load in lung at 20 mg/kg, sc dosed every 6 hrs co-treated with 200 mg/kg vancomycin and measured after 48 hrs post first treatment (reference value: 4.5 log10CFU/g); format: functional
# [29] = test system: Pseudomonas aeruginosa; experiment: Antimicrobial activity against Pseudomonas aeruginosa infected in mouse model of neutropenic thigh infection assessed reduction in bacterial levels in thigh at 160 mg/kg/day, sc administered 2 hrs post infection every 6 hrs for 24 hrs; format: functional, organism-based
# [30] = Half life in rat at 5 mg/kg, iv; format: ADME, organism-based; conditions: in vivo
Structure (SMILES),MIC [1],MIC [2],Kd [3],MIC [4],MIC [6],MIC [7],logD [8],other results
CC#Cc1ccc(C2=NO[C@@H](C[C@](C)(C(=O)NO)S(C)(=O)=O)C2)cc1,0.5 µg/mL,1 µg/mL,0.44 nM,2 µg/mL,0.25 µg/mL,8 µg/mL,1.4,fold change (FC) [5]: 4; fold change (FC) [9]: 32
C[C@@](C[C@H]1CC(c2ccc(Br)cc2)=NO1)(C(=O)NO)S(C)(=O)=O,4 µg/mL,32 µg/mL,2.6 nM,,,> 64 µg/mL,1.2,
CN[C@H](CC(C)C)C(=O)N[C@H]1C(=O)N[C@@H](CC(N)=O)C(=O)N[C@H]2C(=O)N[C@H]3C(=O)N[C@H](C(=O)N[C@H](C(=O)O)c4cc(O)cc(O)c4-c4cc3ccc4O)[C@H](O)c3ccc(c(Cl)c3)Oc3cc2cc(c3O[C@@H]2O[C@H](CO)[C@@H](O)[C@H](O)[C@H]2O[C@H]2C[C@](C)(N)[C@H](O)[C@H](C)O2)Oc2ccc(cc2Cl)[C@H]1O [VANCOMYCIN],,,,,,> 128 µg/mL,,Activity [10]: inactive; Activity [11]: inactive
C/C=C/c1ccc(N2C[C@H](C[C@](C)(C(=O)NO)S(C)(=O)=O)OC2=O)cc1,1 µg/mL,4 µg/mL,0.1 nM,,,32 µg/mL,1.4,
CCCc1ccc(N2C[C@H](C[C@](C)(C(=O)NO)S(C)(=O)=O)OC2=O)cc1,0.5 µg/mL,4 µg/mL,0.17 nM,8 µg/mL,1 µg/mL,32 µg/mL,1.6,fold change (FC) [5]: 4; fold change (FC) [9]: 32
C[C@@H](O)Cc1ccc(-c2ccc(N3C[C@H](C[C@](C)(C(=O)NO)S(C)(=O)=O)OC3=O)cc2)cc1,2 µg/mL,0.25 µg/mL,0.12 nM,,,1 µg/mL,1.2,
C[C@@](C[C@H]1CN(c2ccc(Br)cc2)C(=O)O1)(C(=O)NO)S(C)(=O)=O,0.5 µg/mL,> 64 µg/mL,0.21 nM,,,> 64 µg/mL,1,
C[C@@H](O)[C@H](NC(=O)c1ccc(C#Cc2ccc(CN3CCOCC3)cc2)cc1)C(=O)NO,2 µg/mL,0.125 µg/mL,,,,0.5 µg/mL,,
C[C@@](C[C@H]1CN(c2ccc(C#CC3CC3)cc2)C(=O)O1)(C(=O)NO)S(C)(=O)=O,0.5 µg/mL,0.125 µg/mL,,0.25 µg/mL,0.06 µg/mL,1 µg/mL,1.9,Vd [12]: 1.6 L/kg; clearance [13]: 49 mL/min/kg; clearance [14]: 26 mL/min/kg; Vd [15]: 1 L/kg; half-life [16]: 42 min; fraction unbound [17]: 0.11; half-life [18]: 330 min; Activity [19]: Active; fraction unbound [20]: 0.13; fraction unbound [21]: 0.14; fraction unbound [22]: 0.14; solubility [23]: 126 µg/mL; Vd [24]: 0.8 L/kg; solubility [25]: > 20 mg/mL; Activity [26]: 4.5 log10CFU/g; clearance [27]: 24 mL/min/kg; Activity [28]: 2.5 log10CFU/g; Activity [29]: Active; half-life [30]: 54 min
CO[C@H]1/C=C/O[C@@]2(C)Oc3c(C)c(O)c4c(O)c(c(/C=N/N5CCN(C)CC5)c(O)c4c3C2=O)NC(=O)/C(C)=C\C=C\[C@H](C)[C@H](O)[C@@H](C)[C@@H](O)[C@@H](C)[C@H](OC(C)=O)[C@@H]1C [RIFAMPIN],,,,,,32 µg/mL,,
CC(C)(O)[C@H]1C[C@H](C#Cc2ccc(N3C[C@H](C[C@](C)(C(=O)NO)S(C)(=O)=O)OC3=O)cc2)C1,1 µg/mL,0.5 µg/mL,0.2 nM,1 µg/mL,0.5 µg/mL,1 µg/mL,1.6,fold change (FC) [5]: 1; fold change (FC) [9]: 2
CC#Cc1ccc(N2C[C@H](C[C@](C)(C(=O)NO)S(C)(=O)=O)OC2=O)cc1,0.5 µg/mL,2 µg/mL,0.063 nM,4 µg/mL,0.25 µg/mL,16 µg/mL,1.4,fold change (FC) [5]: 4; fold change (FC) [9]: 64
C[C@@](C[C@H]1CN(c2ccc(-c3ccccc3)cn2)C(=O)O1)(C(=O)NO)S(C)(=O)=O,2 µg/mL,2 µg/mL,0.12 nM,,,32 µg/mL,1.8,
C/C=C/c1ccc(C2=NO[C@@H](C[C@](C)(C(=O)NO)S(C)(=O)=O)C2)cc1,1 µg/mL,2 µg/mL,0.3 nM,,,16 µg/mL,2,
C[C@@](C[C@H]1CN(c2ccc(-c3ccccc3)cc2)C(=O)O1)(C(=O)NO)S(C)(=O)=O,1 µg/mL,0.25 µg/mL,0.026 nM,,,4 µg/mL,2.3,
C[C@@](C[C@H]1CC(c2ccc(C#CC3CC3)cc2)=NO1)(C(=O)NO)S(C)(=O)=O,1 µg/mL,0.125 µg/mL,0.17 nM,0.125 µg/mL,0.03 µg/mL,0.5 µg/mL,2.2,fold change (FC) [5]: 4; fold change (FC) [9]: 16
C[C@@](C[C@H]1CN(c2ccc(C3CC3)cc2)C(=O)O1)(C(=O)NO)S(C)(=O)=O,2 µg/mL,32 µg/mL,0.12 nM,,,> 64 µg/mL,1.5,
CCCc1ccc(C2=NO[C@@H](C[C@](C)(C(=O)NO)S(C)(=O)=O)C2)cc1,1 µg/mL,4 µg/mL,0.2 nM,,,16 µg/mL,1.7,
